According to patent US9550772B2, “Azaindole derivatives as multi kinase inhibitors” (ORIBASE PHARMA, priority 2012, dated 2017):
Where two headings read alike, the source gives them in different places.

How the values were obtained:
H1975 cell line = test: In vitro cell proliferation assay (MTT); format: cell-based; conditions: Homo sapiens, NCI-H1975, H1975, 72 hr, read-out: EC50, anti-proliferative activity
Procedure, shortened: (§1)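 Duplicate 72 hr treatments spanning 10 nM–3 μM compound preceded MTT measurement of growth. Sigmoidal fitting yielded EC50, with normalization against DMSO controls set at 0% and 1% SDS controls set at 100%.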

HuCCT1 cell line = test: In vitro cell proliferation assay (MTT); format: cell-based; conditions: Homo sapiens, HuCCT-1, HuCCT1, 72 hr, read-out: EC50, anti-proliferative activity
Procedure, shortened: as §1

A549 cell line = test: In vitro cell proliferation assay (MTT); format: cell-based; conditions: Homo sapiens, A549, 72 h, read-out: EC50, anti-proliferative activity
Procedure, shortened: as §1

HT29 cell line = test: In vitro cell proliferation assay (MTT); format: cell-based; conditions: Homo sapiens, HT-29, HT29, 72 hr, read-out: EC50, anti-proliferative activity
Procedure, shortened: as §1

HUVEC cells = test: In vitro cell proliferation assay (MTT); format: cell-based; conditions: Homo sapiens, 72 hr, read-out: EC50, anti-proliferative activity
Procedure, shortened: as §1

HepG2 cell line = test: In vitro cell proliferation assay (MTT); format: cell-based; conditions: Homo sapiens, HepG2, 72 hr, read-out: EC50, anti-proliferative activity
Procedure, shortened: as §1

EGFR (ErbB1) = molecular target: T1, EGFR (ErbB1) (Homo sapiens, UniProt P00533); test: In vitro kinase assay (Z'-LYTE, Invitrogen); format: biochemical; conditions: compound at 100 nM, ATP Km apparent, read-out: % of inhibition of the kinase compared to the control
T1 construct: purchased Invitrogen
T1 sequence (P00533 25-1210): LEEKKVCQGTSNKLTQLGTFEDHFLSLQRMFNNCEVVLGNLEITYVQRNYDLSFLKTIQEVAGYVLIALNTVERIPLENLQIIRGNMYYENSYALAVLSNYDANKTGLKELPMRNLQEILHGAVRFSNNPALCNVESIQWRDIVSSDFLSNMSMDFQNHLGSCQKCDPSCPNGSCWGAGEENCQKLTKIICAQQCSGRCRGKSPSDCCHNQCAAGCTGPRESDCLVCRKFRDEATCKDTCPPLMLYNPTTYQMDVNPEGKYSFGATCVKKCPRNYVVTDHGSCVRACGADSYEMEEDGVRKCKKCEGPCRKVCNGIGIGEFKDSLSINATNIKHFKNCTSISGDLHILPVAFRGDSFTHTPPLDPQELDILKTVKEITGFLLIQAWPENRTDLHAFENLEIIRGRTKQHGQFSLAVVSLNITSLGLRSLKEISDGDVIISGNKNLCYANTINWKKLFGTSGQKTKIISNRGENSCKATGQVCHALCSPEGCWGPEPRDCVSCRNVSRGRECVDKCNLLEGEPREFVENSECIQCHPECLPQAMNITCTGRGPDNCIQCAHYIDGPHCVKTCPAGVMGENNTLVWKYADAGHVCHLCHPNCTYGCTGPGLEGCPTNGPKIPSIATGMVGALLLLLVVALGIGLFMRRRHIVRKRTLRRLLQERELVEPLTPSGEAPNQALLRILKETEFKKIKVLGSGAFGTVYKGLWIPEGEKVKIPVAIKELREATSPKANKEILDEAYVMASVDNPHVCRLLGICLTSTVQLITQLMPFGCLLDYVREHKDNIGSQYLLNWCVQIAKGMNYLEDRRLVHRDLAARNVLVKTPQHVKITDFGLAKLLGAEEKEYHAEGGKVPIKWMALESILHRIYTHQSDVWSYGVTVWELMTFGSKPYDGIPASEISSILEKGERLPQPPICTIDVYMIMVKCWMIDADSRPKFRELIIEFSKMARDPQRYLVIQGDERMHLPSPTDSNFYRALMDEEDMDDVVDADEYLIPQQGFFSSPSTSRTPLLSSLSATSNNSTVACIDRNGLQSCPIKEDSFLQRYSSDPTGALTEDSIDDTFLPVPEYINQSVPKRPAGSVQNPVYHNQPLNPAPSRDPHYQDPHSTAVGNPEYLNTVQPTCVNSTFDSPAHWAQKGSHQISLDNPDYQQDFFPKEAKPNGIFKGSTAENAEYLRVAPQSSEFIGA
Procedure, shortened: (§2)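 Compounds were tested at 100 nM in 1% DMSO final against each kinase with its peptide substrate, ATP at apparent Km, in 50 mM HEPES pH 7.5 with 10 mM MgCl2, 1 mM EGTA, 0.01% BRIJ-35. Phosphorylation was quantified by Z′-LYTE coupled protease/FRET emission ratio.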

FGFR2 = molecular target: T2, FGFR2 (Homo sapiens, UniProt P21802); test: In vitro kinase assay (Z'-LYTE, Invitrogen); format: biochemical; conditions: compound at 100 nM, ATP Km apparent, read-out: % of inhibition of the kinase compared to the control
T2 construct: purchased Invitrogen
T2 sequence (P21802 22-821): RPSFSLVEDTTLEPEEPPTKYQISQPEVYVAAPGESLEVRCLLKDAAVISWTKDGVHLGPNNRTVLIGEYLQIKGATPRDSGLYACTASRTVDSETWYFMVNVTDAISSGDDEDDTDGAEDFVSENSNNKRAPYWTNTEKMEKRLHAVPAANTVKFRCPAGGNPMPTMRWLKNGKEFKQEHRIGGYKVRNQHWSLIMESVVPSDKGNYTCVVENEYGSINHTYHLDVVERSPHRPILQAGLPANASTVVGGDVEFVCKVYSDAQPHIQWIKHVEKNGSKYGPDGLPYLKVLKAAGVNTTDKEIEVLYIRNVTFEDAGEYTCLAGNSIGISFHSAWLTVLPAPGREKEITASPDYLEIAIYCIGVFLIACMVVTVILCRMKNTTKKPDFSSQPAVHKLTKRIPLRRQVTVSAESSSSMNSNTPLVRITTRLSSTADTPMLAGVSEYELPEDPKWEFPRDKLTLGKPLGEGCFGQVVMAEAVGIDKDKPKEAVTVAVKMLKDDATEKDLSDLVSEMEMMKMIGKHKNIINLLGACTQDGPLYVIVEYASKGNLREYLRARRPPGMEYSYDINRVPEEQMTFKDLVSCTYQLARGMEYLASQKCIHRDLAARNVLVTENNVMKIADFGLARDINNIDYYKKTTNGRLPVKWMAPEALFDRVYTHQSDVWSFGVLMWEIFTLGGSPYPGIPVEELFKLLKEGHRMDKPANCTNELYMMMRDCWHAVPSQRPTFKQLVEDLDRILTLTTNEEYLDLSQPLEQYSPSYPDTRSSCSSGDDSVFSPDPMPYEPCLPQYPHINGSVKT
Procedure, shortened: as §2

EGFR (ErbB1) T790M L858R = molecular target: T3, EGFR (ErbB1) T790M L858R (Homo sapiens, UniProt P00533, L858R/T790M); test: In vitro kinase assay (Z'-LYTE, Invitrogen); format: biochemical; conditions: compound at 100 nM, ATP Km apparent, read-out: % of inhibition of the kinase compared to the control
T3 construct: purchased Invitrogen
T3 sequence (P00533 25-1210 T790M/L858R): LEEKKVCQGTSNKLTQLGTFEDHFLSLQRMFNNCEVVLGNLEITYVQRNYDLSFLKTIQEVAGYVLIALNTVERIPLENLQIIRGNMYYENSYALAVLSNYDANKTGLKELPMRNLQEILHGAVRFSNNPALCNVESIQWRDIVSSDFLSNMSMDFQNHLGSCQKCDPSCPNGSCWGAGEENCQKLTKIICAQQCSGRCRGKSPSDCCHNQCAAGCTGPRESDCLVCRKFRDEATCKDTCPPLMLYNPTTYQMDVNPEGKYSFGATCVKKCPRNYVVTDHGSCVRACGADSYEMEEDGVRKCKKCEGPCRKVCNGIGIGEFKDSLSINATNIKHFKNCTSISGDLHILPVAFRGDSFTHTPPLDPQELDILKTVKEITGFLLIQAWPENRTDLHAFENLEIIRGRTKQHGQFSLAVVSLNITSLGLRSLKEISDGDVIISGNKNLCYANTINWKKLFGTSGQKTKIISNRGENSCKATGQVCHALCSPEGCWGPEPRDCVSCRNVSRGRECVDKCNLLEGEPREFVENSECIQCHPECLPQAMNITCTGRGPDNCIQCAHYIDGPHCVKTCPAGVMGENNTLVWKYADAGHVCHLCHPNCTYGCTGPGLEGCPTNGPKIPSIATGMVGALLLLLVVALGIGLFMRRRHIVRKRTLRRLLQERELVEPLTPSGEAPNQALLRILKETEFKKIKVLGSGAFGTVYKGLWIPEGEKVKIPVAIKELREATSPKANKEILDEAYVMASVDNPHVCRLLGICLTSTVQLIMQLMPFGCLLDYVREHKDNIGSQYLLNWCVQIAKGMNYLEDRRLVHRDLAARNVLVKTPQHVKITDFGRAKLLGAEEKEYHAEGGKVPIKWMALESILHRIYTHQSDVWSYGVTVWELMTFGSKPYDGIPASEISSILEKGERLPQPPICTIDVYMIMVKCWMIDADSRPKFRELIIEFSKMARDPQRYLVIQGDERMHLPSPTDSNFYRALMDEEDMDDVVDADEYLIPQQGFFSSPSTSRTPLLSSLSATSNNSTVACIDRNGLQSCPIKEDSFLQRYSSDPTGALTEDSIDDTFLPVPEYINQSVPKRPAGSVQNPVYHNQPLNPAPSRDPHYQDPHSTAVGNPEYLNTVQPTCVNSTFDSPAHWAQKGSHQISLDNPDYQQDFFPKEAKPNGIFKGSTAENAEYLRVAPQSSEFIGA
Procedure, shortened: as §2

KDR (VEGFR2) = molecular target: T4, KDR (VEGFR2) (Homo sapiens, UniProt P35968); test: In vitro kinase assay (Z'-LYTE, Invitrogen); format: biochemical; conditions: compound at 100 nM, ATP Km apparent, read-out: % of inhibition of the kinase compared to the control
T4 construct: purchased Invitrogen
T4 sequence (P35968 20-1356): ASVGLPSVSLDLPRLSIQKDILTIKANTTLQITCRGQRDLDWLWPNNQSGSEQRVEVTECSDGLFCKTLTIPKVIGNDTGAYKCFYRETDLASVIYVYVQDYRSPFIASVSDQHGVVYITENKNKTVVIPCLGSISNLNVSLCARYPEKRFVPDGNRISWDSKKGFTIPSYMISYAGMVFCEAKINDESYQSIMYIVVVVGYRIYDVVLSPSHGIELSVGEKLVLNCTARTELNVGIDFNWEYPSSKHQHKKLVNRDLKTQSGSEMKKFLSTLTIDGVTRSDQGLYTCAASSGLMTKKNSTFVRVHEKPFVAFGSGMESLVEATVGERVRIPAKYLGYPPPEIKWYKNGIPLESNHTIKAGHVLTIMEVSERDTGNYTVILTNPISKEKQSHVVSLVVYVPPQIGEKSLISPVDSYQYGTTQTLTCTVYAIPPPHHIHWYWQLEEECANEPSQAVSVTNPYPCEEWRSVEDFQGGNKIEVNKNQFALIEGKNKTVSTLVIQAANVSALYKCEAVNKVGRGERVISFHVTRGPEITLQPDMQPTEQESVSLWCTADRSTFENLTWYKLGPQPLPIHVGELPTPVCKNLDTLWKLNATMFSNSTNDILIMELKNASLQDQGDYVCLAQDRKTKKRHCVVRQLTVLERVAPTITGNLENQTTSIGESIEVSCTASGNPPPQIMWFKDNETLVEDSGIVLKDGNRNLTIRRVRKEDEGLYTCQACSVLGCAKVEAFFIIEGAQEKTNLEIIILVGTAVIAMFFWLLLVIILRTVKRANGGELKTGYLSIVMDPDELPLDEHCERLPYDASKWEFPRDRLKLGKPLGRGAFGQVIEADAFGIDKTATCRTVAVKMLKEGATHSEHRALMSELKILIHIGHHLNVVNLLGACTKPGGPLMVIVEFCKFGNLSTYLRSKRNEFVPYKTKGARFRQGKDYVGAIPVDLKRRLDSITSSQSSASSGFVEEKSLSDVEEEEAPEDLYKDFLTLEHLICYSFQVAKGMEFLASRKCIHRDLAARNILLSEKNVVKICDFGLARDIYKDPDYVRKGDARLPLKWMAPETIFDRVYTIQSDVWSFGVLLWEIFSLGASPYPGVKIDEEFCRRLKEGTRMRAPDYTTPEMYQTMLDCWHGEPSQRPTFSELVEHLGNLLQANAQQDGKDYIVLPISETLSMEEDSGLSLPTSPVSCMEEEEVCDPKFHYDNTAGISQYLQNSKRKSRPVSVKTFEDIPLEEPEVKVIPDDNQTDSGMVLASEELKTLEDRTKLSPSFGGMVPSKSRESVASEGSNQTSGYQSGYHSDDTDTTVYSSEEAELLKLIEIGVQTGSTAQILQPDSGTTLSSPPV
Procedure, shortened: as §2

BRAF = molecular target: T5, BRAF (Homo sapiens, UniProt P15056); test: In vitro kinase assay (Z'-LYTE, Invitrogen); format: biochemical; conditions: compound at 100 nM, ATP Km apparent, read-out: % of inhibition of the kinase compared to the control
T5 construct: purchased Invitrogen
Procedure, shortened: as §2

SRC = molecular target: T6, SRC (Homo sapiens, UniProt P12931); test: In vitro kinase assay (Z'-LYTE, Invitrogen); format: biochemical; conditions: compound at 100 nM, ATP Km apparent, read-out: % of inhibition of the kinase compared to the control
T6 construct: purchased Invitrogen
T6 sequence (P12931 whole entry): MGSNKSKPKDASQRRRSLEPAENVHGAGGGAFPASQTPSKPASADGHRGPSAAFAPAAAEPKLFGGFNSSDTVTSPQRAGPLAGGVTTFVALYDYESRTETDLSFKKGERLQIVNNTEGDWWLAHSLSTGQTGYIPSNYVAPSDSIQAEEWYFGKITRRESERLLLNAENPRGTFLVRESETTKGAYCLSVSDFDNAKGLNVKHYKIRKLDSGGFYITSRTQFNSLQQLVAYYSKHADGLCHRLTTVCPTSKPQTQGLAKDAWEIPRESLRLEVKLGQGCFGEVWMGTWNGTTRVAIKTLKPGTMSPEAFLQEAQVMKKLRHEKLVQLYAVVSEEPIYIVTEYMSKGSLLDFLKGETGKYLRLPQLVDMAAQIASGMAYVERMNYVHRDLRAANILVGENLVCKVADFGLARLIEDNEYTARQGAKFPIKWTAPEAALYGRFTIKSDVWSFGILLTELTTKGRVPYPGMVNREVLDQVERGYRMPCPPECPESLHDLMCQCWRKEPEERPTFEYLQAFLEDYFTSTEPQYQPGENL
Procedure, shortened: as §2

PDGFRA (PDGFR alpha) = molecular target: T7, PDGFRA (PDGFR alpha) (Homo sapiens, UniProt P16234); test: In vitro kinase assay (Z'-LYTE, Invitrogen); format: biochemical; conditions: compound at 100 nM, ATP Km apparent, read-out: % of inhibition of the kinase compared to the control
T7 construct: purchased Invitrogen
Procedure, shortened: as §2

HuH6 Clone 5 cell line = test: In vitro cell proliferation assay (MTT); format: cell-based; conditions: HUH-6-clone5, HuH6 Clone 5, 72 hr, EC50 ≧ 1 μM, read-out: EC50, anti-proliferative activity
Procedure, shortened: as §1

HeLa cell line = test: In vitro cell proliferation assay (MTT); format: cell-based; conditions: Homo sapiens, 72 hr, 100 nM < EC50 < 1 μM, read-out: EC50, anti-proliferative activity
Procedure, shortened: as §1

MDA-MB-231 cell line = test: In vitro cell proliferation assay (MTT); format: cell-based; conditions: Homo sapiens, MDA-MB-231, 72 hr, EC50 ≦ 100 nM, read-out: EC50, anti-proliferative activity
Procedure, shortened: as §1

HuH7 cell line = test: In vitro cell proliferation assay (MTT); format: cell-based; conditions: Homo sapiens, Huh-7, HuH7, 72 hr, 100 nM < EC50 < 1 μM, read-out: EC50, anti-proliferative activity
Procedure, shortened: as §1

Structure (SMILES)	EC50 (H1975 cell line; EC50 ≧ 1 μM) [nM]	EC50 (HuCCT1 cell line; EC50 ≧ 1 μM) [nM]	EC50 (A549 cell line; EC50 ≧ 1 μM) [nM]	EC50 (HT29 cell line; EC50 ≧ 1 μM) [nM]	EC50 (HUVEC cells; 100 nM < EC50 < 1 μM) [nM]	EC50 (HepG2 cell line; EC50 ≧ 1 μM) [nM]	inhibition at 0.1 µM (EGFR (ErbB1)) [%]	inhibition at 0.1 µM (FGFR2) [%]	inhibition at 0.1 µM (EGFR (ErbB1) T790M L858R) [%]	inhibition at 0.1 µM (KDR (VEGFR2)) [%]	inhibition at 0.1 µM (BRAF) [%]	inhibition at 0.1 µM (SRC) [%]	inhibition at 0.1 µM (PDGFRA (PDGFR alpha)) [%]	EC50 (H1975 cell line; 100 nM < EC50 < 1 μM) [nM]	EC50 (HuH6 Clone 5 cell line) [nM]	EC50 (HuH7 cell line) [nM]	other results
COC(=O)c1cc2cc(CNc3cc(NC(=O)c4ccc(CN5CCN(C)CC5)c(C(F)(F)F)c4)ccc3C)cnc2[nH]1 [OR0747, 5-({2-Methyl-5-[4-(4-methyl-piperazin-1-ylmethyl)-3-trifluoromethyl-benzoylamino]-phenylamino}-methyl)-1H-pyrrolo[2,3-b]pyridine-2-carboxylic acid methyl ester]	≥ 1000	≥ 1000	≥ 1000	≥ 1000	100 to 1000	≥ 1000	≥ 50	≥ 50	< 50	≥ 50	< 50	≥ 50	≥ 50	–	–	–	–
COC(=O)c1cc2cc(CCc3cc(NC(=O)c4ccc(CN5CCN(C)CC5)c(C(F)(F)F)c4)ccc3C)cnc2[nH]1 [OR0748, 5-(2-{2-Methyl-5-[4-(4-methyl-piperazin-1-ylmethyl)-3-trifluoromethyl-benzoylamino]-phenyl}-ethyl)-1H-pyrrolo[2,3-b]pyridine-2-carboxylic acid methyl ester]	–	–	–	≥ 1000	–	–	≥ 50	≥ 50	≥ 50	≥ 50	≥ 50	≥ 50	≥ 50	100 to 1000	≥ 1000	100 to 1000	EC50 (HuCCT1 cell line; 100 nM < EC50 < 1 μM): 100 to 1000 nM; EC50 (A549 cell line; 100 nM < EC50 < 1 μM): 100 to 1000 nM; EC50 (A549 cell line; EC50 ≦ 100 nM): ≤ 100 nM; EC50 (HeLa cell line): 100 to 1000 nM; EC50 (MDA-MB-231 cell line): ≤ 100 nM; EC50 (HUVEC cells; EC50 ≦ 100 nM): ≤ 100 nM; EC50 (HepG2 cell line; 100 nM < EC50 < 1 μM): 100 to 1000 nM
COC(=O)c1cc2cc(COc3cc(NC(=O)c4ccc(CN5CCN(C)CC5)c(C(F)(F)F)c4)ccc3C)cnc2[nH]1 [OR0749, 5-{2-Methyl-5-[4-(4-methyl-piperazin-1-ylmethyl)-3-trifluoromethyl-benzoylamino]-phenoxymethyl}-1H-pyrrolo[2,3-b]pyridine-2-carboxylic acid methyl ester]	≥ 1000	≥ 1000	≥ 1000	–	100 to 1000	≥ 1000	≥ 50	≥ 50	< 50	≥ 50	< 50	≥ 50	≥ 50	–	≥ 1000	100 to 1000	EC50 (HT29 cell line; 100 nM < EC50 < 1 μM): 100 to 1000 nM
COC(=O)c1cc2cc(COc3cc(NC(=O)c4ccc(CN5CCC(N(C)C)C5)c(C(F)(F)F)c4)ccc3C)cnc2[nH]1 (centres unmarked) [OR0750, 5-{5-[4-(3-Dimethylamino-pyrrolidin-1-ylmethyl)-3-trifluoromethyl-benzoylamino]-2-methyl-phenoxymethyl}-1H-pyrrolo[2,3-b]pyridine-2-carboxylic acid methyl ester]	–	≥ 1000	≥ 1000	≥ 1000	100 to 1000	≥ 1000	≥ 50	≥ 50	< 50	≥ 50	< 50	≥ 50	≥ 50	100 to 1000	–	–	–
